Patent US6878548B2, “Composition for use in electroporation” (Pola Chemical Industries Inc., priority 2001, dated 2005)
Structures can show the parent of a compound that is named as a salt. Where two headings read alike, the source gives them in different places.

Key:
[1] = percutaneous permeability test using a Franz cell after electroporation, abdominal skin
Procedure: Calcein sodium salt was used as a model labeled drug at a concentration of 1 mM. The ingredients were stirred and solubilized to obtain the compositions for electroporation (solutions) of the present invention. The percutaneous absorption promotion actions of these compositions for electroporation were measured by percutaneous permeability test using a Franz cell. That is, a skin sample was collected from the abdomen of a hairless rat, and subcutaneous fat was removed from the sample. The skin sample was loaded in the Franz cell as a partition wall with its horny cell layer facing towards the donor side. The receiver side was filled with an isotonic phosphate-buffered saline (PBS). The donor side was filled with 3 mL of the aforementioned composition for electroporation of the present invention. The receiver side was stirred at 1200 rpm by using a star-head type stirrer. After the electroporation, 0.3 mL of the solution in the receiver side was serially collected in a time course and added with the same amount of isotonic phosphate-buffered saline (PBS) to examine the percutaneous permeability. […] The amount of calcein sodium salt was measured by a fluorometer. Further, as for the conditions of electroporation, ECM-830 produced by BTX was used, 10 pulses of 10 ms at 300 V was applied at intervals of 1 minute immediately after the drug administration, and then the power was turned off.
The same examination as in Example 1 was conducted by using various metal chlorides.
The same examination as in Example 1 was conducted by using trivalent metal ion chlorides. As for the electroporation conditions, 10 pulses of 10 ms at 300 V were applied at intervals of 1 second immediately after the drug administration. As the trivalent metal ion chlorides, iron chloride and aluminum chloride were used.
The same examination as in Example 1 was conducted by using FITC-dextran as a model labeled drug. As for the electroporation conditions, 10 pulses of 10 ms at 300 V were applied at intervals of 1 second immediately after the drug administration. As the FITC-dextran, FD4 (molecular weight: 4300), FD10 (molecular weight: 9600) and FD40 (molecular weight: 35600) were used.

[2] = percutaneous permeability test using a Franz cell after electroporation, dorsal skin; format: in vitro ADME, hairless rat
From the text: However, dorsal skin of a hairless rat was used as the skin sample. […] As the model labeled drugs, sodium dexamethasone phosphate (DEX.Na), ritodrine hydrochloride (RIT), dimemorfan phosphate (DIM), caffeine (CAF), azelastine hydrochloride (AZR), tipepidine hibenzate (TIP), benzoic acid (BA), phenytoin (PEN) and testosterone (TES) were used.

Molecule: [Cl][Al]([Cl])[Cl] [aluminum chloride]
- percutaneous absorption (calcein), trivalent metal ion chlorides vs calcium ions [1]: neither of the trivalent metal ions significantly promoted percutaneous absorption

Molecule: CN1CCCC(n2nc(Cc3ccc(Cl)cc3)c3ccccc3c2=O)CC1 (stereo not drawn) [azelastine hydrochloride]
- percutaneous absorption of the model labeled drug on addition of calcium ions [2]: significantly promoted percutaneous absorption

Molecule: [Ba+2].[Cl-].[Cl-] [barium chloride]
- absorption of calcein during electroporation ([1]; Example 9, various divalent metal chlorides added, FIG. 7): promoted the absorption of calcein

Molecule: [Cl-].[K+] [potassium chloride]
- percutaneous absorption promotion action (buprenorphine hydrochloride) ([1]; Example 8, sample of Example 4 with metal chloride changed, all 150 mM, buprenorphine hydrochloride 0.02% by weight, FIGS. 5 and 6): promoted percutaneous absorption

Molecule: CN1CCCC(=C(c2cccs2)c2cccs2)C1.O=C(O)c1ccccc1C(=O)c1ccc(O)cc1 [tipepidine hibenzate]
- percutaneous absorption of the model labeled drug on addition of calcium ions ([2]; Example 11, dorsal skin, addition of CaCl2, 10 pulses of 10 ms at 300 V at intervals of 1 second, FIG. 9): significantly promoted percutaneous absorption

Molecule: iron chloride
- percutaneous absorption (calcein), trivalent metal ion chlorides vs calcium ions [1]: neither of the trivalent metal ions significantly promoted percutaneous absorption
